Test results taken from US5821230A, “GnRH antagonist decapeptides” (Ferring BV, priority 1997, dated 1998).
*1 amine or outer side, *2 acyl side, *3 side chain or, on linkers, in order; H or OH if unused. Where a SMILES comes first, the peptide text is derived from it. Side-chain parts run from the residue outwards. [ ]: non-standard residue; d: D form. dPhe(4-NH2) = Nc1ccc(C[C@@H](N)C(=O)O)cc1; dPhe(4-Cl) = N[C@H](Cc1ccc(Cl)cc1)C(=O)O; Phe(4-NH2) = Nc1ccc(C[C@H](N)C(=O)O)cc1; d2Nal = N[C@H](Cc1ccc2ccccc2c1)C(=O)O; Lys(iPr) = CC(C)NCCCC[C@H](N)C(=O)O; dDap = NC[C@@H](N)C(=O)O; CO = O=C([*:1])[*:2]

How the values were obtained:
[1] = examination of injected rats for tolerance and gelling at the point of injection; format: in vivo; settings: 50 μg per rat sc
[2] = hydrophilicity by RP-HPLC retention time, TEAP pH 7.0 gradient; format: physicochemical; settings: 40% to 70% Buffer B over 30 minutes
Protocol: Hydrophilicity is tested by measuring retention time using RP-HPLC with a gradient of 40% Buffer B to 70% Buffer B over 30 minutes, with Buffer A being TEAP pH 7.0 and Buffer B being 70% CH3 CN and 30% Buffer A at pH 7.0.

LH secretion = test: in vivo suppression of circulating LH levels in castrated male Sprague-Dawley rats treated subcutaneously; parameters: species or system rat; settings: for in vivo suppression of LH secretion compared with a reference peptide: dosage not printed at the place; for suppression of LH compared with a reference peptide: standard in vivo rat test as in Example 1
Protocol: The peptide is hereinafter referred to as Peptide No. 1 and is assayed in vivo to determine its effectiveness to suppress secretion of LH in rats. Measurement of circulating LH levels in castrated male Sprague-Dawley rats treated subcutaneously with the peptide is carried out as reported in C. Rivier et al. Biol. Reproduc., 1983. 29, 374-378. The peptides are first dissolved at a concentration of 1.0 or 10 mg/ml in bacteriostatic water and then further diluted in 0.04M phosphate buffer containing 0.1% BSA. Subsequent dilutions are made in phosphate buffer. The peptides are injected sc, and blood samples (300 μl) are collected under metotane anesthesia. Sera (50 […]) are tested for LH levels in duplicate using reagents provided by the National Pituitary and Hormone Distribution Program of the NIDDK. […] However, 96 hours following injection, the LH levels are only about 75% of those of the Acyline-injected rats.

[3] = dosage of 50 micrograms per rat sc

hydrophilicity compared with a reference peptide [2] | Molecule | gelling at the point of injection [1] | tolerance of the peptide in injected rats [1] | in vivo suppression of LH secretion compared with a reference peptide (LH secretion) | suppression of LH compared with a reference peptide (LH secretion; [3]) | duration of action, as classed in words (LH secretion; [3])
more hydrophilic than Antide | Ac-D-2Nal-D-4Cpa-D-Dpr(methylcarbamoyl)-Ser-4Aph(Gab)(atz)-D-4Aph(Gab)(atz)-Leu-ILys-Pro-D-Ala-NH2 [Peptide No. 5A] |  |  | longer duration of in vivo suppression of LH secretion than Acyline |  | 
more hydrophilic than Antide | Ac-D-2Nal-D-4Cpa-D-Dpr(methylcarbamoyl)-Ser-4Aph(β-Ala)(atz)-D-4Aph(β-Ala)(atz)-Leu-ILys-Pro-D-Ala-NH2 [Peptide No. 5B] |  |  | longer duration of in vivo suppression of LH secretion than Antide |  | 

The next lines start with the molecule.

Molecule | hydrophilicity compared with a reference peptide [2] | gelling at the point of injection [1] | tolerance of the peptide in injected rats [1] | in vivo suppression of LH secretion compared with a reference peptide (LH secretion) | suppression of LH compared with a reference peptide (LH secretion; [3]) | duration of action, as classed in words (LH secretion; [3])
CNC(=O)NC[C@@H](NC(=O)[C@@H](Cc1ccc(Cl)cc1)NC(=O)[C@@H](Cc1ccc2ccccc2c1)NC(C)=O)C(=O)N[C@@H](CO)C(=O)N[C@@H](Cc1ccc(NC(C)=O)cc1)C(=O)N[C@H](Cc1ccc(NC(C)=O)cc1)C(=O)N[C@@H](CC(C)C)C(=O)N[C@@H](CCCCNC(C)C)C(=O)N1CCC[C@H]1C(=O)N[C@H](C)C(N)=O [Peptide No. 1, Ac-D-2Nal-(4Cl)D-Phe-D-Dpr(methylcarbamoyl)-Ser-4Aph (acetyl)-D-4Aph(acetyl)-Leu-Lys(isopropyl)-Pro-D-Ala-NH2] (Ac-[d2Nal][dPhe(4-Cl)][dDap]([CO-NHMe])S[Phe(4-NH2)](Ac)[dPhe(4-NH2)](Ac)L[Lys(iPr)]P[dA]-NH2) |  | no significant gelling at the point of injection being detectable | very well tolerated |  |  | 
Ac-β-D-2Nal-D-4Cpa-Gln-Ser-4Aph(hydroorotyl)-D-4Amf(methylcarbamoyl)- Leu-Lys(isopropyl)-Pro-D-Ala-NH2 [Example 8F] | more hydrophilic than Acyline |  |  |  | substantially as effective as Acyline for 3 days | 
Ac-β-D-2Nal-D-4Cpa-D-Dpr(methylcarbamoyl)-Ser-4Aph(Hor)-D-Aph(Hor)-Leu-Lys(isopropyl)-Pro-D-Ala-NH2 [Example 5E] | more hydrophilic than Acyline |  |  |  | substantially as active as Acyline in suppressing LH level at 1, 2 and 3 days | long-acting
